According to BindingDB's records for patent US20260001833 (The Cleveland Clinic Foundation, 2026):

Target: T1, Choline trimethylamine-lyase (UniProt A0AAJ0YC41)
T1 sequence (A0AAJ0YC41 whole entry): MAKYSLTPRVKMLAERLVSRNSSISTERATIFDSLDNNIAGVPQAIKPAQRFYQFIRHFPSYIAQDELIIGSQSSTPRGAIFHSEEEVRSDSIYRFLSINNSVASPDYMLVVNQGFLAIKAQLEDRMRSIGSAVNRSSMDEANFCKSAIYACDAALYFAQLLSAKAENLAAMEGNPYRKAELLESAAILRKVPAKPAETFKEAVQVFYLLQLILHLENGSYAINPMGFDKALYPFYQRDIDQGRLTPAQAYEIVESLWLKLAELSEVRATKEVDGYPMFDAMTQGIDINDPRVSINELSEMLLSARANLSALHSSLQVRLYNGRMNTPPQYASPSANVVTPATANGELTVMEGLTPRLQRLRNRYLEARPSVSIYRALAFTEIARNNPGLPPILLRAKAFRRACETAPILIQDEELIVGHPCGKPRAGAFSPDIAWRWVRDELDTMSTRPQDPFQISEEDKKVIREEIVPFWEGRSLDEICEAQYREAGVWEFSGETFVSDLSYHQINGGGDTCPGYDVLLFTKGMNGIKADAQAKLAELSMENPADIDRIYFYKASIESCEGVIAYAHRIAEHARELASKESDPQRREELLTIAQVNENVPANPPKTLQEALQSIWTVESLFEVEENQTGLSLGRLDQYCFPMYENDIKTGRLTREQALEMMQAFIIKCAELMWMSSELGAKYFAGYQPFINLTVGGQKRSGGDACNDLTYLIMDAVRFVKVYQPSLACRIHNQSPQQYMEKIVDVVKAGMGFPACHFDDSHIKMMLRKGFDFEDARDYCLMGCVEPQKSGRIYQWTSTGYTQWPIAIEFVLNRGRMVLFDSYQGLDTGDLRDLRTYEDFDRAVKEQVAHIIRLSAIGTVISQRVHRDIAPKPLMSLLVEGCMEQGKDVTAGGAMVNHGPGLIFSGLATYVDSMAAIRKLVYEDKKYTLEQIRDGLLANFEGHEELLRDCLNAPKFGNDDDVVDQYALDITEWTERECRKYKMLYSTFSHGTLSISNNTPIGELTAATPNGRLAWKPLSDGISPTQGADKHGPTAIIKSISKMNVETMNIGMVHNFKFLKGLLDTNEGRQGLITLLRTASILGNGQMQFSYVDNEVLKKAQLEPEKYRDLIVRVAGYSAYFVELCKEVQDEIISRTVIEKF
Test: In Vitro TMA Inhibition
Description: Choline TMA lyase enzymatic activity assays were conducted to measure the conversion of isotope-labeled d9-choline to d9-TMA. Upon thawing an aliquot of frozen clarified lysate on ice and gentle mixing, clarified lysate was diluted to 5 mg/mL in lysis buffer and the necessary co-factors were added (final concentration: 1 mM SAM, 10 mM NaDT, and 2 mM NADH). Potential inhibitor compounds (typically dissolved in H2O) were serially diluted (10-fold) and added to individual reaction mixtures (done in triplicate). The mixture was then allowed to incubate for at least 15 minutes at 22° C. before the addition of substrate (300 μM final d9-choline) to initiate the reaction, which was carried out for 2 hours at room temperature (22° C.) in the dark in gas tight sealed reaction vials. The reactions were quenched with the addition of 200 μL of 1 M NaOH and 0.5 μM of the internal standard ([13C3 15N1]TMA), vortexing and placement in ice. d9-TMA production was quantified using mass spectrometry by measuring the peak area ratio of the precursor to product ion transition of d9-TMA (m/z 69→49) to the internal standard [13C3 15N1]TMA (m/z 64→47).

SMILES: C[N+](C)(CF)CCOC(=O)c1ccc(O)cc1 [US20260001833, Compound 3]
- IC50: 3.6 µM
